Experimental findings from US20140113869A1, “Gbetagamma BINDING SITE ON THE PIK3CB GENE PRODUCT AND METHODS OF USE” (Albert Einstein College of Medicine of Yeshiva University, priority 2011, published 2014) are described below.

The subject of experiment [1] is Gβγ activation of Akt (pT308-Akt) in NIH3T3 cells. As to the kind of experiment: pT308-Akt blotting in NIH3T3 cells transfected with Gβγ. Type of experiment: cell-based. Conditions: for Gβγ activation of Akt (pT308-Akt): myristoylated vs TAT-tagged vs unmodified peptide, FIG. 6B. The method, then:
FIG. 6A-6B. (6A) NIH3T3 cells were transfected without or with Gβγ and incubated with scrambled (control) or p110β peptide. pT308-Akt was measured by blotting. (6B) Cell transfected as above were incubated with myristoylated peptide, TAT-tagged peptide, or unmodified peptide. pT308-Akt was measured by blotting.
(§1) To test the possibility that small molecules targeting the p110β-Gβγ interface could be used as therapeutics, a peptide was designed derived from the Gβγ-binding loop in p110β. having the sequence […] (SEQ ID NO:6) a scrambled version of the peptide serves as a negative control. […] The test whether the peptide could be efficacious in vivo, we created a cell permeable myristylated version of the peptide. The peptide blocked activation of Akt in cells transfected with Gβγ (FIG. 6A); the peptide's inhibitory activity required its entry into the cells, since both myristoylated and TAT-tagged peptide inhibited Gβγ activation of Akt, whereas unlabeled peptide had no effect (FIG. 6B). The myristoylated peptide blocked the formation of colonies in soft agar (FIG. 7A) and the formation of foci (FIG. 7B), both measures of transformation, in NIH3T3 cells transfected with p85/p110β.

Experiment [2] has as its system NIH3T3 cells transfected with p85/p110β. As to the kind of experiment: Colony formation in soft agar. Type of experiment: cell-based. The conditions noted are these: 30 μM peptide; FIG. 7A. The method, then:
(§2) FIG. 7A-7B. (7A). NIH3T3 cells were transfected without or with p85/p110β and incubated without or with 30 μM p110β peptide or scrambled control peptide. Colony formation in soft agar by cells transfected and treated with peptide as above. (7B). Foci were measured after 2 weeks.
as §1

The test system is the same in experiment [3]. Briefly: Foci formation. Type of experiment: cell-based. The conditions noted are these: 30 μM peptide; foci measured after 2 weeks; FIG. 7B. The method, then: as §2, §1
Experiment [4] has as its system NIH3T3 cells transfected with p110β/p85. As to the kind of experiment: Wound healing (wound closure) migration assay. Type of experiment: cell-based. The conditions noted are these: 30 μM peptide; wound closure after 24h; FIG. 8. As for the experimental part: FIG. 8. NIH3T3 cells were transfected without or with p85/p110β. Confluent monolayers were scratched with a pipette tip, and wound closure after 24h was measured in the absence or presence of 30 μM p110β peptide or scrambled control peptide
as §1

A further experiment concerns p110β. As to the kind of experiment: p110β expression in peptide-treated transfected cells. In kind it is cell-based. Conditions: FIG. 7. As for the experimental part:
as §2

The next experiment relates to Gβγ. As to the kind of experiment: Alphascreen competition with phage-displayed SIGK peptide for binding to biotinylated Gβγ. Conditions: FIG. 9A. As for the experimental part:
(§3) FIG. 9A-9D. Peptide inhibitors of Gβγ -mediated p110β/p85 activation are specific for p85/p110β. (9A) Myristoylated p110β peptides or SIGK peptide were preincubated with biotinylated Gβγ or 5 min, followed by addition of phage particles displaying the SIGK peptide, After a 1 h incubation at room temperature, Anti-M-13 phase monoclonal antibody was added followed by addition of Streptavidin coated Alphascreen donor beads and protein A coated Alphascreen acceptor beads. After a 2 h incubation, the Alphascreen signal was read on a Perkin Elmer Envision Multilabel Plate reader. […] Bound proteins were analyzed by western blot. […] The cells were fixed and the number of GFP punctae per cell was counted using a Nikon Eclipse 400 microscope with 60× 1.4 N.A. optics. […]

Another experiment relates to Class IB PI3K p101/p110γ. As to the kind of experiment: Gβγ-dependent activation of p101/p110γ, pT308-Akt western blot in HEK293E cells. Type of experiment: cell-based. The conditions noted are these: FIG. 9C. The method, then: as §3
Background: A western blot detects proteins with antibodies after separation by electrophoresis.

Experiment [5] relates to recombinant adenylyl cyclase. As to the kind of experiment: Synergistic activation of adenylyl cyclase by Gβγ and Gαs in Sf9 cell membranes. Type of experiment: biochemical. The conditions noted are these: 30 μM peptide; 20 nM Gsα, 20 nM Gβγ; FIG. 9D.
A further experiment addresses T1, p110β binding to Rab5 (Homo sapiens, UniProt P42338).
T1 construct: expressed in transfected cells; host or cells: HEK293T (p85α and p110β)
Briefly: p110β binding to immobilized GST-Rab5 (pull-down from HEK293T lysates). Conditions: FIG. 9E. The method, then: as §3

Experiment [6] deals with HEK293A cells expressing GFP-LC3. Briefly: p110β-dependent induction of autophagy, GFP-LC3 punctae in HEK293A cells. The conditions noted are these: PBS containing 100 nM rapamycin, 2 h; FIG. 9F. Type of experiment: cell-based. As for the experimental part: as §3
Experiment [7] has as its system PC3 prostate cancer cells. Briefly: PC-3 cell proliferation, MTS assay. In kind it is cell-based. The conditions noted are these: 30 μM peptide; FIG. 10A. The method, then:
(§4) FIG. 10A-10C. Inhibition of prostate cancer cell proliferation and chemotaxis: (A) Proliferation of PC-3 cells was measured by the MTS assay in the absence or presence of 30 μM myristoylated p110β-derived peptide or scrambled peptide. (B) Proliferation assays were performed on two PTEN-null endometrial cancer cell lines (AN3CA and RL95-2) and one PTEN positive endometrial cell line (KLE) grown in the absence or presence of myristoylated p110β-derived peptide or scrambled peptide. (C) PC-3 cells chemotaxis toward 10% […] in the absence or presence of 20 μM p110β-derived peptide or scrambled peptide was measured in Boyden chambers.
(§5) Finally, the peptide was evaluated for effects on the growth of PC3 prostate cancer cells, which are known to require p110β for growth. […] Importantly, published studies have shown that kinase-dead p110β can rescue cell growth in cell lines where proliferation is inhibited by p110β knockout. Since currently available p110β inhibitors target the active site of p110β and act by inhibiting its kinase activity, they would not be expected to suppress the growth of cells that depend on p110β for growth. In contrast, the p110β peptide described here inhibits p110β by a distinct mechanism, and is likely to be more efficacious at suppressing the growth of p110β-dependent prostate cancer cells than active site inhibitors.
Background: Tetrazolium assays rely on reduction of a dye to a coloured formazan, in cell work by metabolically active cells.

The test system of another experiment is PC3 cells. Briefly: PC-3 chemotaxis in Boyden chambers. In kind it is cell-based. Conditions: 20 μM peptide; toward 10% PBS; FIG. 10C. The method, then: as §4, §5
The subject of experiment [8] is p85/p110β dimers activated by Gβγ. As to the kind of experiment: In vitro activation of p85/p110β dimers by Gβγ (lipid kinase activity). In kind it is biochemical. Conditions: peptide 5-fold in excess of Gβγ; FIG. 5. As for the experimental part: FIG. 5. Percent stimulation of p85/p110β dimers incubated without or with Gβγ in the absence or presence of 5-1Old excess peptide. Pep=p110β peptide. Scram=scrambled peptide control.
as §3

Ends that are not written are not given here. * marks the point of attachment. Myristoyl = CCCCCCCCCCCCCC(=O)*

T1 sequence (P42338 whole entry): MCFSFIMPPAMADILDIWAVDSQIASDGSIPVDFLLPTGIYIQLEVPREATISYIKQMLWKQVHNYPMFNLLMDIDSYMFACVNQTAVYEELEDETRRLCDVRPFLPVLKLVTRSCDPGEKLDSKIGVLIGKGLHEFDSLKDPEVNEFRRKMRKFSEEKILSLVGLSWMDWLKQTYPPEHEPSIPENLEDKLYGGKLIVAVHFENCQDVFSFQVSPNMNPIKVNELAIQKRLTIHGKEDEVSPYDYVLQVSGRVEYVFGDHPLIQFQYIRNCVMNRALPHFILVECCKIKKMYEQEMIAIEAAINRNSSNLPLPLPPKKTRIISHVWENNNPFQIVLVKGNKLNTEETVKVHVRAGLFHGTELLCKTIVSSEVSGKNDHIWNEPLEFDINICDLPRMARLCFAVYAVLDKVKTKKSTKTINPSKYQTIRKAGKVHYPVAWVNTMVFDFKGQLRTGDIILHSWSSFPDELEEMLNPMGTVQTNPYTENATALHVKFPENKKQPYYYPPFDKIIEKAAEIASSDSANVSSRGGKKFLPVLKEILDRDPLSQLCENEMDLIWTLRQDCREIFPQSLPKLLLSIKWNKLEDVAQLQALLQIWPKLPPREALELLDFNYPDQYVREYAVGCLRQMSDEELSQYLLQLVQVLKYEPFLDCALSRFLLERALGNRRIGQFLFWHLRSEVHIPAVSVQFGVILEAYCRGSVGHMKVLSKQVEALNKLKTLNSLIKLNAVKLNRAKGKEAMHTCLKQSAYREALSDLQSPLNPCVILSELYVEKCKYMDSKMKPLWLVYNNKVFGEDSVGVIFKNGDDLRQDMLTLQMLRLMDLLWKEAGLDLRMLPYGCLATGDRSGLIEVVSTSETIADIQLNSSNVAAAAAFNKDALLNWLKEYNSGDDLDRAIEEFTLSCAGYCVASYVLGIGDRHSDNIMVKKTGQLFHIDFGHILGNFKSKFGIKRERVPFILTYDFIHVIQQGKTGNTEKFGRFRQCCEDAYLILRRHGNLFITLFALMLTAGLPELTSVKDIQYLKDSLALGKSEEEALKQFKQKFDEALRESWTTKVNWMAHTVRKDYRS

Turning to “myristoylated peptide: cell permeable myristylated version of the p110β peptide KAAEIASSDSANVSSRGGKKFLPV (SEQ ID NO:6) (Myristoyl-KAAEIASSDSANVSSRGGKKFLPV)”, in experiment [1] (NIH3T3 cells, FIG. 6A), the “activation of Akt in cells transfected with Gβγ (pT308-Akt)” value is given as “blocked”. The “Gβγ activation of Akt (pT308-Akt)” value in experiment [1] was “inhibited”. Also, in [2], the “formation of colonies in soft agar” value is listed as “blocked”. The formation of foci result in experiment [3] is “blocked”. The “enhanced migration in a wound healing assay” value in experiment [4] is “blocked”. The p110β expression result with p110β is recorded as “did not reduce”. In addition, in the experiment on Gβγ, the “competition with the binding to Gβγ of SIGK peptide” value is reported as “did not compete”. Also, in the experiment with Class IB PI3K p101/p110γ, the “Gβγ-dependent activation of the Class IB PI3K p101/p110γ” value was “no effect”. For the same substance, in experiment [5], the “synergistic activation of adenylyl cyclase by Gβγ and Gαs” value is “no effect”. In the experiment with p110β binding to Rab5, the “p110β binding to Rab5” value was “no effect”. For the same substance, the “p110β-dependent induction of autophagy” value in experiment [6] is given as “no effect”. Moreover, in experiment [7], the “PC3 cells number (growth)” value was “caused a decrease”. The “PC3 cells chemotaxis toward serum” value in the experiment on PC3 cells is on record as “inhibited”.

Turning to “KAAEIASSDSANVSSRGGKKFLPV (SEQ ID NO:6) [peptide]”, the “activation of p110β by Gβγ” value in [8] is recorded as “markedly reduces”. Besides, the “Gβγ activation of Akt (pT308-Akt)” value in experiment [1] is on record as “no effect”.
